In paper PMC11279160 (Microorganisms, 2024):
Read-outs that look alike come from different tables or passages of the source.

Tests used:
[1] = tested on: L. (L.) amazonensis axenic amastigotes; assay: Growth inhibition of axenic amastigotes, MTT assay, 72 h; format: cell-based, Leishmania (Leishmania) amazonensis; conditions: for EC50: read-out: Axenic Amastigotes EC50
Procedure: (§1) The species Leishmania (Leishmania) amazonensis (IFLA/BR/67/PH8) was maintained in promastigote form at a temperature of 26 °C in a biochemical oxygen demand incubator (BOD) (Eletrolab EL202, São Paulo, Brazil) and in complete Schneider medium (20% heat-inactivated fetal bovine serum (FBS), and 1% antibiotic solution). The L. (L.) amazonensis axenic amastigote forms were obtained through the differentiation of infective promastigote forms using Schneider medium supplemented with 5% FBS, pH 4.6, at a temperature of 32 °C. Parasite growth was observed daily and, if necessary, weekly repeats were performed.
(§2) Promastigote forms or axenic amastigotes in an exponential growth phase were cultured in 96-well plates with complete Schneider’s medium, at 1 × 10^6 parasites/mL. […] The plates were incubated for 72 h under a BOD at 26 °C to prepare promastigotes and 32 °C to prepare amastigotes. When ready, 10 μL of MTT (5 mg/mL) was added to all wells (with the exception of the blank) with an incubation for 4 h. Subsequently, 50 μL of SDS solution (dodecyl sodium sulfate) at 10% was added to dissolve the formazan crystals, and a spectrophotometric reading was then performed (Biotek model ELx800, Winooski, VT, USA) at 540 nm. Schneider medium with 0.5% DMSO was used, considering a 0% growth inhibition for the negative control.

[2] = Cytotoxicity on VERO cells, MTT assay, 72 h; conditions: African green monkey, VERO CCL 81 cells
Procedure: (§3) Murine J774A.1 lineage macrophages and VERO CCL 81 cells were grown in 750 cm^2 cell culture flasks (Corning Glass Workers, New York, NY, USA) containing complete RPMI medium (10% SFB and 1% stabilized anti-mycotic–antibiotic solution), incubated at 37 °C and 5% CO2. The cells were observed on all days and replicates were always conducted after the cells reached confluence, around 72 to 96 h [22].
(§4) The cytotoxicity assay was performed in 96-well plates using MTT for cell viability observation. Plates containing 100 μL of complete RPMI medium and approximately 5 × 10^5 J774A.1 macrophages or VERO CCL 81 cells were incubated for 4 h at 37 °C and 5% CO2 for cell adhesion to occur. […] As a positive control, the reference drugs meglumine antimoniate (200–40,000 µM) and amphotericin B (0.031–2 µM) were used, and as a negative control, complete RPMI 1640 medium at 0.5% DMSO was used (considering 100% cell viability). After 72 h of incubation at 37 °C and 5% CO2, 10 μL of MTT was added and incubated for another 4 h at room temperature. The medium was then removed, and 100 μL of DMSO was added to dilute the formazan crystals created by the MTT [23]. Finally, the plate was taken to be read at 540 nm in a (Biotek model Elx800) spectrophotometer.

[3] = tested on: L. (L.) amazonensis intracellular amastigotes; assay: Activity against intramacrophageal amastigotes in infected J774A.1 macrophages; format: cell-based, Leishmania (Leishmania) amazonensis; conditions: for reduction in macrophage infection rate / reduction in the number of internalized amastigotes per infected macrophage: compared to negative control; for EC50: read-out: Intracellular Amastigotes EC50
Procedure: Macrophages were added to 24-well culture plates containing complete RPMI medium and sterile 13 mm coverslips, 1 × 10^5 J774A.1, and for cell adhesion incubated at 37 °C and 5% CO2 for 3 h. The medium was then removed, and three washes with PBS at 37 °C to remove non-adherent cells were performed. New medium, together with metacyclic promastigote forms in a proportion of 10 promastigotes/macrophage, was then added to the wells for infection and then incubated for another 4 h at 37 °C and 5% of CO2. The medium was then removed again and the plate washed with PBS to remove non-internalized […]. […] Subsequently, the coverslips were removed, stained with a quick panoptic kit, and mounted with Entelan®. In each coverslip, 300 macrophages were counted, together with the number of internalized amastigotes through optical microscopy at 1000× magnification. For the negative control, complete RPMI medium with 0.5% DMSO was used. At the end of the macrophage infection assay, the supernatant was stored at −20 °C for the subsequent evaluation of NO production.

J774A.1 macrophages [4] = assay: Phagocytic capacity, neutral-red-stained zymosan; format: cell-based, murine; conditions: 12.5 μM, 6.25 μM and 3.12 μM, 72 h, compared to negative control
Procedure: At 72 h, 10 μL of VN-stained zymosan was added and then incubated for 30 min. […] To remove what was not phagocytized by the macrophages, the plate was washed with PBS. The plate extraction solution was added, and then solubilization was performed in a Kline shaker. The board was taken for reading on a spectrophotometer at 540 nm.

[5] = tested on: L. (L.) amazonensis promastigotes; assay: Growth inhibition of promastigotes, MTT assay, 72 h; format: cell-based; conditions: Leishmania amazonensis; for IC50: read-out: Promastigotes IC50
Procedure: as §1, §2

[6] = tested on: J774A.1 macrophages infected with L. (L.) amazonensis; assay: Nitric oxide production by infected macrophages, Griess reagent; format: cell-based, murine; conditions: 3.12 μM, 6.25 μM and 12.5 μM, 72 h, compared to negative control
Procedure: The measurement of NO production (using macrophage infection supernatant) was performed by the production of nitrite with Griess reagent. About 100 µL of infection supernatant was added to a 96-well plate. In parallel, serial concentrations of NaNO2 in RPMI medium were also added to the plate for interpolation of the standard curve. Griess reagent (1% Sulfanilamide in 10% (v/v) H3PO4 in Milli-Q® water and in equal parts to 0.1% naphthylenediamine in Milli-Q® water Q®) was then added and incubated for 10 min at room temperature. At the end of the incubation, a reading was conducted on a plate reader at 540 nm. The positive control was performed with Escherichia coli lipopolysaccharide at 2 μg/mL.

[7] = tested on: L. (L.) amazonensis-infected J774A.1 macrophages; assay: Cytokine production in infected macrophages, ELISA; format: cell-based, murine; conditions: 72 h
Procedure: According to Rodrigues et al., 2021 [27], to carry out cytokine evaluation, the supernatant saved after the J774A.1 macrophage infection assay was used to evaluate cytokine production. Analysis kits (optEIATM ELISA, Pharmingen, San Diego, CA, USA) were used following the manufacturer’s protocol to examine the release of cytokines (TNF-α, IL-1α, IL-6, IL-10, and IL-12), and standard recombinant cytokines were used to produce a curve. The reading was performed in a spectrophotometer at 450 nm.

[8] = Cytotoxicity on macrophages, MTT assay, 72 h; conditions: mouse
Procedure: as §3, §4

J774A.1 macrophages [9] = assay: Lysosomal activity, neutral red retention; format: cell-based, murine; conditions: 12.5 μM, 6.25 μM and 3.12 μM, 72 h, relative to negative control
Procedure: After this, 10 μL of PBS and 2% red neutral (VN) were added, with incubation in an incubator for another 30 min. Soon afterwards, the supernatant was aspirated and the plates washed 3× with PBS to remove excess VN. […] Finally, the plates were placed under agitation in a Kline apparatus for 30 min, and then read in a spectrophotometer at 540 nm.

[10] = tested on: J774A.1 macrophages infected with L. (L.) amazonensis; assay: ROS production in infected macrophages, H2DCFDA test; format: cell-based, murine; conditions: 3.12 μM, 6.25 μM and 12.5 μM, 72 h, compared to negative control
Procedure: Macrophages were incubated in 96-well plates with complete RPMI medium for 3 h at 37 °C, and 5% CO2 for adherence. These were then infected with L. […] Then 10 μL of H2DCFDA was added for a final concentration of 20 μM and incubated for 30 min in the dark at 37 °C. A spectrofluorometer (FLx800) was used to read the fluorescence intensity, using 485 nm of excitation and 528 nm of emission. Antimycin A (5 μM) was used as the positive control for ROS generation.

in vitro [11] = conditions: mouse
Procedure: as §3, §4

in vitro [12] = conditions: African green monkey
Procedure: as §3, §4

[13] = tested on: promastigotes of L. (L.) amazonensis; conditions: cited from earlier work
[14] = tested on: amastigotes of L. (L.) amazonensis; conditions: cited from earlier work
[15] = Leishmania amazonensis, read-out: growth inhibition of axenic amastigote forms
[16] = read-out: growth inhibition of promastigote forms

Compound: CC1(C)C=C2[C@H]3CC[C@@H]4[C@@]5(C)CC[C@H](O)C(C)(C)[C@@H]5CC[C@@]4(C)[C@]3(C)CC[C@@]2(C(=O)O)CC1 [Morolic acid, morolic acid]
- EC50 ([1]; Leishmania amazonensis): 2.74 ± 0.03 µM
- inhibition at 1.56 µM [1, 15]: 34.1%
- inhibition at 3.12 µM [1, 15]: 68.6%
- inhibition at 6.25 µM [1, 15]: 76.4%
- inhibition at 12.5 µM [1, 15]: 100%
- inhibition at 25 µM [1, 15]: 100%
- inhibition at 50 µM [1, 15]: 100%
- inhibition at 100 µM [1, 15]: 100%
- CC50 at 72 h [2]: 82.9 ± 1.84 µM
- viability at 72 h, 1.56 µM [2]: 100%
- viability at 72 h, 3.12 µM [2]: 100%
- viability at 72 h, 6.25 µM [2]: 93.2%
- viability at 72 h, 12.5 µM [2]: 88.8%
- viability at 72 h, 25 µM [2]: 79.4%
- viability at 72 h, 50 µM [2]: 71.2%
- viability at 72 h, 100 µM [2]: 38.8%
- viability at 72 h, 200 µM [2]: 24.3%
- reduction in macrophage infection rate ([3]; 1.56 μM, 72 h): 34%
- reduction in the number of internalized amastigotes per infected macrophage ([3]; 1.56 μM, 72 h): 59.1%
- reduction in macrophage infection rate ([3]; 3.12 μM, 72 h): 77.5%
- reduction in the number of internalized amastigotes per infected macrophage ([3]; 3.12 μM, 72 h): 71.6%
- reduction in macrophage infection rate ([3]; 6.25 μM, 72 h): 93%
- reduction in the number of internalized amastigotes per infected macrophage ([3]; 6.25 μM, 72 h): 86.8%
- reduction in macrophage infection rate ([3]; 12.5 μM, 72 h): 100%
- reduction in the number of internalized amastigotes per infected macrophage ([3]; 12.5 μM, 72 h): 100%
- EC50 ([3]; Leishmania amazonensis, J774.A1, 72 h): 2.56 ± 0.08 µM
- phagocytic capacity for zymosan (J774A.1 macrophages [4]): significant increase
- IC50 [5]: 1.13 ± 0.04 µM
- inhibition at 1.56 µM [5, 16]: 57.6%
- inhibition at 3.12 µM [5, 16]: 57.9%
- inhibition at 6.25 µM [5, 16]: 83.3%
- inhibition at 12.5 µM [5, 16]: 100%
- inhibition at 25 µM [5, 16]: 100%
- inhibition at 50 µM [5, 16]: 100%
- inhibition at 100 µM [5, 16]: 100%
- levels of NO produced in infected macrophages [6]: increase
- IL-1α levels [7]: no effect
- IL-12 levels [7]: no effect
- production of TNF-α ([7]; at the higher concentration): significant increase
- IL-6 levels ([7]; at the highest concentrations): significant reduction
- IL-10 levels ([7]; at the highest concentrations): significant reduction
- CC50 at 72 h [8]: 68.6 ± 2.46 µM
- viability at 72 h, 1.56 µM ([8]; J774A.1 macrophages): 100%
- viability at 72 h, 3.12 µM ([8]; J774A.1 macrophages): 100%
- viability at 72 h, 6.25 µM ([8]; J774A.1 macrophages): 100%
- viability at 72 h, 12.5 µM ([8]; J774A.1 macrophages): 100%
- viability at 72 h, 25 µM ([8]; J774A.1 macrophages): 100%
- viability at 72 h, 50 µM ([8]; J774A.1 macrophages): 65%
- viability at 72 h, 100 µM ([8]; J774A.1 macrophages): 15%
- viability at 72 h, 200 µM ([8]; J774A.1 macrophages): 0%
- lysosomal activity (J774A.1 macrophages [9]): increased
- levels of ROS produced in infected macrophages [10]: increase

Compound: C[C@@H]1[C@H](O)[C@@H](C)/C=C/C=C/C=C/C=C/C=C/C=C/C=C/[C@H](O[C@@H]2O[C@H](C)[C@@H](O)[C@H](N)[C@@H]2O)C[C@@H]2O[C@](O)(C[C@@H](O)C[C@@H](O)[C@H](O)CC[C@@H](O)C[C@@H](O)CC(=O)O[C@H]1C)C[C@H](O)[C@H]2C(=O)O [Amphotericin B, reference compound]
- CC50 at 72 h (in vitro [11]): 0.38 ± 0.06 µM
- EC50 ([1]; Leishmania amazonensis, 32 °C, MTT): 0.23 ± 0.01 µM
- EC50 ([3]; Leishmania amazonensis, J774.A1, infected J774A.1 macrophages, 72 h): 0.29 ± 0.04 µM
- IC50 ([5]; 26 °C, MTT): 0.36 ± 0.03 µM
- CC50 at 72 h (in vitro [12]): 0.32 ± 0.08 µM

Compound: C[C@H]1[C@H](C)CC[C@]2(C(=O)O)CC[C@]3(C)C(=CC[C@@H]4[C@@]5(C)CC[C@H](O)C(C)(C)[C@@H]5CC[C@]43C)[C@H]12 [ursolic acid]
- IC50 for promastigotes ([13]; L. (L.) amazonensis promastigotes ref 37): 14.1 µg/mL
- IC50 for axenic amastigotes ([14]; L. (L.) amazonensis axenic amastigotes ref 37): 2.24 µg/mL

Compound: C=C(C)[C@@H]1CC[C@]2(C)CC[C@]3(C)[C@H](CC[C@@H]4[C@@]5(C)CC[C@H](O)C(C)(C)[C@@H]5CC[C@]43C)[C@@H]12 [Lupeol]
- IC50 for promastigotes ([13]; L. (L.) amazonensis promastigotes ref 38): 39.06 µg/mL
- IC50 for amastigote forms ([14]; L. (L.) amazonensis amastigote forms ref 38): 44.1 µg/mL

Compound: Meglumine antimoniate [reference compound]
- EC50 ([1]; 32 °C, MTT): 1020 ± 25.7 µM
- EC50 ([3]; infected J774A.1 macrophages, 72 h): 541 ± 13.5 µM
